Where “and” joins values, the source holds several entries; their conditions need not be identical. Equal values may be shown once.
Assay: xn = mol fraction of the nth substance listed

COC(=O)c1ccccc1 + CCCCCC
101 kPa
Conditions | viscosity [mPa·s]
298.15 K, x2 = 0.0743 | 1.549
298.15 K, x2 = 0.1072 | 1.437
298.15 K, x2 = 0.1557 | 1.292
298.15 K, x2 = 0.2038 | 1.165
298.15 K, x2 = 0.2487 | 1.059
298.15 K, x2 = 0.306 | 0.942
298.15 K, x2 = 0.4327 | 0.739
298.15 K, x2 = 0.5799 | 0.573
298.15 K, x2 = 0.6269 | 0.531
298.15 K, x2 = 0.7731 | 0.43
298.15 K, x2 = 0.8687 | 0.379
298.15 K, x2 = 0.9288 | 0.356
308.15 K, x2 = 0.0711 | 1.287
308.15 K, x2 = 0.1099 | 1.188
308.15 K, x2 = 0.156 | 1.08
308.15 K, x2 = 0.1971 | 0.989
308.15 K, x2 = 0.2501 | 0.894
308.15 K, x2 = 0.2967 | 0.816
308.15 K, x2 = 0.3441 | 0.748
308.15 K, x2 = 0.3888 | 0.69
308.15 K, x2 = 0.4383 | 0.633
308.15 K, x2 = 0.4943 | 0.577
308.15 K, x2 = 0.5292 | 0.546
308.15 K, x2 = 0.5797 | 0.504
308.15 K, x2 = 0.6228 | 0.475
308.15 K, x2 = 0.6692 | 0.446
308.15 K, x2 = 0.7253 | 0.412
308.15 K, x2 = 0.767 | 0.392
308.15 K, x2 = 0.8162 | 0.37
308.15 K, x2 = 0.8731 | 0.347
308.15 K, x2 = 0.9205 | 0.329
318.15 K, x2 = 0.08 | 1.087
318.15 K, x2 = 0.0873 | 1.072
318.15 K, x2 = 0.1249 | 1
318.15 K, x2 = 0.1776 | 0.906
318.15 K, x2 = 0.2189 | 0.839
318.15 K, x2 = 0.2731 | 0.757
318.15 K, x2 = 0.3197 | 0.696
318.15 K, x2 = 0.3711 | 0.634
318.15 K, x2 = 0.4155 | 0.586
318.15 K, x2 = 0.4667 | 0.537
318.15 K, x2 = 0.5132 | 0.499
318.15 K, x2 = 0.5535 | 0.471
318.15 K, x2 = 0.6116 | 0.436
318.15 K, x2 = 0.6634 | 0.41
318.15 K, x2 = 0.7082 | 0.388
318.15 K, x2 = 0.7636 | 0.365
318.15 K, x2 = 0.8087 | 0.35
318.15 K, x2 = 0.8631 | 0.333
318.15 K, x2 = 0.9098 | 0.317

CC(C)OCCO + CCCN
viscosity [mPa·s], 101.33 kPa
Conditions | 298.15 K | 308.15 K | 318.15 K
x1 = 0.0207 | 0.381 | 0.347 | 0.305
x1 = 0.0475 | 0.413 | 0.372 | 0.328
x1 = 0.0745 | 0.451 | 0.398 | 0.35
x1 = 0.1534 | 0.575 | 0.493 | 0.425
x1 = 0.2413 | 0.732 | 0.615 | 0.517
x1 = 0.2917 | 0.841 | 0.702 | 0.578
x1 = 0.3559 | 0.992 | 0.808 | 0.662
x1 = 0.4223 | 1.147 | 0.935 | 0.746
x1 = 0.4366 | 1.183 | 0.966 | 0.767
x1 = 0.5416 | 1.445 | 1.145 | 0.905
x1 = 0.6413 | 1.681 | 1.319 | 1.032
x1 = 0.7365 | 1.875 | 1.464 | 1.142
x1 = 0.8564 | 2.047 | 1.577 | 1.252
x1 = 0.9246 | 2.077 | 1.617 | 1.283
x2 = 0.0101 | 2.099 | 1.645 | 1.309

CCCCOCCO + CCCCCCCCCCO
101 kPa
Conditions | viscosity [mPa·s]
303.15 K, x1 = 0.1024 | 8.155
308.15 K, x1 = 0.7009 | 3.195

CCOS(=O)(=O)[O-].CC[N+](CC)=C(N(C)C)N(C)C + O
viscosity [mPa·s], 100 kPa
Conditions | x1 = 0.0999 | x1 = 0.2003 | x1 = 0.3005 | x1 = 0.4004 | x1 = 0.4989 | x1 = 0.6001 | x1 = 0.7 | x1 = 0.801 | x1 = 0.8982
293.15 K | 12.38 | 25.31 | 39.06 | 53.18 | 68.18 | 85.88 | 107 | 132.6 | 160.6
298.15 K | 10.01 | 19.81 | 29.97 | 40.42 | 51.48 | 64.33 | 79.13 | 97.08 | 116.9
303.15 K | 8.224 | 15.93 | 23.79 | 31.86 | 40.31 | 49.98 | 60.7 | 73.9 | 88.11
308.15 K | 6.765 | 12.88 | 19.09 | 25.43 | 32.02 | 39.28 | 47.26 | 57.08 | 67.41
313.15 K | 5.628 | 10.63 | 15.72 | 20.82 | 26.05 | 31.62 | 37.7 | 45.18 | 53.08
318.15 K | 4.66 | 8.802 | 13.04 | 17.16 | 21.39 | 25.68 | 30.35 | 36.2 | 42.47
323.15 K | 3.828 | 7.374 | 10.99 | 14.3 | 17.61 | 21.15 | 24.97 | 29.66 | 34.73

COC(=O)c1ccccc1 + CCCCO
viscosity [mPa·s], 100 kPa
Conditions | x1 = 0.05 | x1 = 0.1 | x1 = 0.2 | x1 = 0.3 | x1 = 0.45 | x1 = 0.6 | x1 = 0.749 | x1 = 0.849 | x1 = 0.899 | x1 = 0.95
293.2 K | 2.62 | 2.397 | 2.097 | 1.922 | 1.787 | 1.746 | 1.777 | 1.836 | 1.885 | 1.95
298.2 K | 2.308 | 2.119 | 1.866 | 1.719 | 1.606 | 1.574 | 1.604 | 1.659 | 1.703 | 1.761
303.2 K | 2.041 | 1.882 | 1.668 | 1.545 | 1.453 | 1.429 | 1.459 | 1.509 | 1.549 | 1.6
308.2 K | 1.813 | 1.678 | 1.5 | 1.398 | 1.32 | 1.303 | 1.333 | 1.381 | 1.417 | 1.464
313.2 K | 1.616 | 1.505 | 1.354 | 1.267 | 1.204 | 1.193 | 1.224 | 1.269 | 1.303 | 1.345

CCCCOCCO + O=C1CCCCC1
298.15 K, 101 kPa
Conditions | viscosity
x2 = 0.118 | 2.522 mPa·s and 2.642 mPa·s
x2 = 0.2314 | 2.28 mPa·s and 2.518 mPa·s
x2 = 0.3404 | 2.108 mPa·s and 2.402 mPa·s
x2 = 0.4453 | 1.972 mPa·s and 2.304 mPa·s
x2 = 0.5463 | 1.873 mPa·s and 2.217 mPa·s
x2 = 0.6436 | 1.795 mPa·s and 2.146 mPa·s
x2 = 0.7375 | 1.763 mPa·s and 2.087 mPa·s
x2 = 0.8281 | 1.766 mPa·s and 2.048 mPa·s
x2 = 0.9155 | 1.822 mPa·s and 2.024 mPa·s

Source: the CheMixHub viscosity set
